Earlier results on six molecules are cited in US20040058975A1, “Method for fertility control” (Schering AG, priority 2002, published 2004).

Read-outs that look alike come from different tables or passages of the source.

Data set [1] relates to ovulation. To be noted: several mammalian species including rats, rabbits, sheep.
The subject of data set [2] is ovulation. To be noted: monkeys.
The test system of data set [3] is ovulation. To be noted: women.
The target in a further data set is COX-2 (Homo sapiens, UniProt P35354). To be noted: humans.
The subject of data set [4] is ovulation. The conditions noted are these: COX-2 deficient mice.

Chain of COX-2 (P35354 18-604): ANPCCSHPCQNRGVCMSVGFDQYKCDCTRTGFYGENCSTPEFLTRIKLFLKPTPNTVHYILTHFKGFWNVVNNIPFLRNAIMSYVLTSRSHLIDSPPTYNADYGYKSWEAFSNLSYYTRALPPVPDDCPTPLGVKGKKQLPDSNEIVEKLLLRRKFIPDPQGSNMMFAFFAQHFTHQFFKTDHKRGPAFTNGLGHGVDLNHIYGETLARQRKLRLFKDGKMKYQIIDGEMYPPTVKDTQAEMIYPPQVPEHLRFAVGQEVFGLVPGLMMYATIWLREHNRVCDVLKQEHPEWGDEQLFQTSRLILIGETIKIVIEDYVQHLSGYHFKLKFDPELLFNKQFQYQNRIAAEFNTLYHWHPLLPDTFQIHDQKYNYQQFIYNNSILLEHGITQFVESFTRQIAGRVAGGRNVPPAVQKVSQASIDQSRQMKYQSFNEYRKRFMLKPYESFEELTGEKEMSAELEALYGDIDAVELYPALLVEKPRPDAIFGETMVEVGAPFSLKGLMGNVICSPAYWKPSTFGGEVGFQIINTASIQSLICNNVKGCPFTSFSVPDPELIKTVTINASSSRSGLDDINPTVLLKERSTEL

In the case of `CC(=O)Oc1ccccc1C(=O)O` [Aspirin], the ovulation entry in the data set with ovulation [1] is given as “may prevent ovulation”.
`COc1ccc2c(c1)c(CC(=O)O)c(C)n2C(=O)c1ccc(Cl)cc1` [Indomethacin]: the ovulation result in the data set with ovulation [2] is “block ovulation”; with ovulation [3] it was “block ovulation”; in the data set on ovulation [1], “may prevent ovulation”.
As to `COc1ccc2cc([C@H](C)C(=O)O)ccc2c1` [Naproxen], the ovulation entry in the data set on ovulation [1] is “may prevent ovulation”.
On to `CS(=O)(=O)c1ccc(C2=C(c3ccccc3)C(=O)OC2)cc1` [Rofecoxib, 4-(4-mesylphenyl)-3-phenylfuran-2(5H)-one], for which, on COX-2, the follicular rupture entry is reported as “delayed follicular rupture” and the peripheral hormonal cycles entry is listed as “without affecting peripheral hormonal cycles”.
Turning to `CCCCC[C@H](O)/C=C/[C@H]1[C@H](O)CC(=O)[C@@H]1C/C=C\CCCC(=O)O` [prostaglandin E2], the anovulation result in the data set on ovulation [4] is “restored”.
As to Interleukin-1β: Interleukin-1β, in the data set on ovulation [4], the anovulation entry was “restored”.
